According to ChEMBL document CHEMBL5543142, “Discovery of YFJ-36: Design, Synthesis, and Antibacterial Activities of Catechol-Conjugated β-Lactams against Gram-Negative Bacteria” (J Med Chem, 2024):

What was measured:
[1] = Half life in ICR mouse at 20 mg/kg,iv administration measured upto 6 hrs by LC-MS/MS analysis; type: ADME, organism-based; details: in vivo
Escherichia coli [2] = assay: Antibacterial activity against Escherichia coli ATCC35218 assessed as inhibition of bacterial growth incubated for 18 to 20 hrs by two fold serial dilution assay; type: functional; details: time 18-20 hrs
[3] = Volume of distribution at steady state in ICR mouse at 20 mg/kg,iv administration measured upto 6 hrs by LC-MS/MS analysis; type: ADME, organism-based; details: in vivo, read-out: Vdss
Acinetobacter baumannii [4] = assay: Antibacterial activity against OXA-23 producing multidrug-resistant Acinetobacter baumannii clinical isolate 15-3 assessed as inhibition of bacterial growth incubated for 18 to 20 hrs by two fold serial dilution assay; type: functional; details: time 18-20 hrs
Escherichia coli [5] = assay: Antibacterial activity against ESBL-producing multidrug-resistant Escherichia coli clinical isolate 14-2 assessed as inhibition of bacterial growth incubated for 18 to 20 hrs by two fold serial dilution assay; type: functional; details: time 18-20 hrs
Pseudomonas aeruginosa [6] = assay: Antibacterial activity against IMP-4 producing multidrug-resistant Pseudomonas aeruginosa clinical isolate 17-13 assessed as inhibition of bacterial growth incubated for 18 to 20 hrs by two fold serial dilution assay; type: functional; details: time 18-20 hrs
Escherichia coli [7] = assay: Antibacterial activity against ESBL-producing multidrug-resistant Escherichia coli clinical isolate 14-1 assessed as inhibition of bacterial growth incubated for 18 to 20 hrs by two fold serial dilution assay; type: functional; details: time 18-20 hrs
[8] = Clearance in ICR mouse at 20 mg/kg,iv administration measured upto 6 hrs by LC-MS/MS analysis; type: ADME, organism-based; details: in vivo
Klebsiella pneumoniae [9] = assay: Antibacterial activity against KPC-2 producing multidrug-resistant Klebsiella pneumoniae clinical isolate 15-2 assessed as inhibition of bacterial growth incubated for 18 to 20 hrs by two fold serial dilution assay; type: functional; details: time 18-20 hrs
[10] = MRT in ICR mouse at 20 mg/kg,iv administration measured upto 6 hrs by LC-MS/MS analysis; type: ADME, organism-based; details: in vivo
Klebsiella pneumoniae [11] = assay: Antibacterial activity against KPC-2 producing multidrug-resistant Klebsiella pneumoniae clinical isolate 15-5 assessed as inhibition of bacterial growth incubated for 18 to 20 hrs by two fold serial dilution assay; type: functional; details: time 18-20 hrs
Klebsiella pneumoniae [12] = assay: Antibacterial activity against KPC-2 producing multidrug-resistant Klebsiella pneumoniae clinical isolate 15-1 assessed as inhibition of bacterial growth incubated for 18 to 20 hrs by two fold serial dilution assay; type: functional; details: time 18-20 hrs
Escherichia coli [13] = assay: Antibacterial activity against ESBL-producing multidrug-resistant Escherichia coli clinical isolate 14-4 assessed as inhibition of bacterial growth incubated for 18 to 20 hrs by two fold serial dilution assay; type: functional; details: time 18-20 hrs
Acinetobacter baumannii [14] = assay: Antibacterial activity against OXA-23 producing multidrug-resistant Acinetobacter baumannii clinical isolate 15-2 assessed as inhibition of bacterial growth incubated for 18 to 20 hrs by two fold serial dilution assay; type: functional; details: time 18-20 hrs
Acinetobacter baumannii [15] = assay: Antibacterial activity against OXA-23 producing multidrug-resistant Acinetobacter baumannii clinical isolate 15-4 assessed as inhibition of bacterial growth incubated for 18 to 20 hrs by two fold serial dilution assay; type: functional; details: time 18-20 hrs
Pseudomonas aeruginosa [16] = assay: Antibacterial activity against IMP-4 producing multidrug-resistant Pseudomonas aeruginosa clinical isolate 19-17 assessed as inhibition of bacterial growth incubated for 18 to 20 hrs by two fold serial dilution assay; type: functional; details: time 18-20 hrs
Acinetobacter baumannii [17] = assay: Antibacterial activity against OXA-23 producing multidrug-resistant Acinetobacter baumannii clinical isolate 15-1 assessed as inhibition of bacterial growth incubated for 18 to 20 hrs by two fold serial dilution assay; type: functional; details: time 18-20 hrs
Acinetobacter baumannii [18] = assay: Antibacterial activity against OXA-23 producing multidrug-resistant Acinetobacter baumannii clinical isolate 15-5 assessed as inhibition of bacterial growth incubated for 18 to 20 hrs by two fold serial dilution assay; type: functional; details: time 18-20 hrs
Klebsiella pneumoniae [19] = assay: Antibacterial activity against KPC-2 producing multidrug-resistant Klebsiella pneumoniae clinical isolate 15-3 assessed as inhibition of bacterial growth incubated for 18 to 20 hrs by two fold serial dilution assay; type: functional; details: time 18-20 hrs
[20] = AUC (0 to infinity) in ICR mouse at 20 mg/kg,iv administration measured upto 6 hrs by LC-MS/MS analysis; type: ADME, organism-based; details: in vivo
Pseudomonas aeruginosa [21] = assay: Antibacterial activity against IMP-4 producing multidrug-resistant Pseudomonas aeruginosa clinical isolate 17-1 assessed as inhibition of bacterial growth incubated for 18 to 20 hrs by two fold serial dilution assay; type: functional; details: time 18-20 hrs
Acinetobacter baumannii [22] = assay: Antibacterial activity against OXA-23 producing multidrug-resistant Acinetobacter baumannii clinical isolate 17-3 assessed as inhibition of bacterial growth incubated for 18 to 20 hrs by two fold serial dilution assay; type: functional; details: time 18-20 hrs
Acinetobacter baumannii [23] = assay: Antibacterial activity against OXA-23 producing multidrug-resistant Acinetobacter baumannii clinical isolate 17-2 assessed as inhibition of bacterial growth incubated for 18 to 20 hrs by two fold serial dilution assay; type: functional; details: time 18-20 hrs
Pseudomonas aeruginosa [24] = assay: Antibacterial activity against IMP-4 producing multidrug-resistant Pseudomonas aeruginosa clinical isolate 19-5 assessed as inhibition of bacterial growth incubated for 18 to 20 hrs by two fold serial dilution assay; type: functional; details: time 18-20 hrs
Pseudomonas aeruginosa [25] = assay: Antibacterial activity against IMP-4 producing multidrug-resistant Pseudomonas aeruginosa clinical isolate 19-1 assessed as inhibition of bacterial growth incubated for 18 to 20 hrs by two fold serial dilution assay; type: functional; details: time 18-20 hrs

SMILES	half-life [1] [min]	MIC (Escherichia coli [2]) [µg/mL]	Vd [3] [L/kg]	MIC (Acinetobacter baumannii [4]) [µg/mL]	MIC (Escherichia coli [5]) [µg/mL]	MIC (Pseudomonas aeruginosa [6]) [µg/mL]	MIC (Escherichia coli [7]) [µg/mL]	clearance [8] [mL/min/kg]	MIC (Klebsiella pneumoniae [9]) [µg/mL]	MRT [10] [min]	MIC (Klebsiella pneumoniae [11]) [µg/mL]	MIC (Klebsiella pneumoniae [12]) [µg/mL]	MIC (Escherichia coli [13]) [µg/mL]	MIC (Acinetobacter baumannii [14]) [µg/mL]	MIC (Acinetobacter baumannii [15]) [µg/mL]	MIC (Pseudomonas aeruginosa [16]) [µg/mL]	MIC (Acinetobacter baumannii [17]) [µg/mL]	MIC (Acinetobacter baumannii [18]) [µg/mL]	MIC (Klebsiella pneumoniae [19]) [µg/mL]	AUC(0-inf) [20] [ng·h/mL]	also measured
CC1CCC(C(O/N=C(\C(=O)N[C@@H]2C(=O)N3C(C(=O)O)=C(CSCCNC(=O)c4ccc(O)c(O)c4Cl)CS[C@H]23)c2csc(N)n2)C(=O)O)CC1.O=C(O)C(F)(F)F (some centres not stated)	139	≤ 0.03	2.37	4	0.5	0.5	0.5	60.3	0.5	35.4	0.5	1	0.125	8	4	0.5	4	8	1	5760	
Nc1nc(/C(=N/OC(C(=O)O)C2CCCCC2)C(=O)N[C@@H]2C(=O)N3C(C(=O)O)=C(CSCCNC(=O)c4ccc(O)c(O)c4Cl)CS[C@H]23)cs1.O=C(O)C(F)(F)F (some centres not stated)	42	0.125	1.73	8	1	1	0.125	90.1	2	18	1	4	0.125	4	8	0.5	8	4	2	3440	MIC (Pseudomonas aeruginosa [21]): 4 µg/mL
CC(C)(C)C1CCC(C(O/N=C(\C(=O)N[C@@H]2C(=O)N3C(C(=O)O)=C(CSCCNC(=O)c4ccc(O)c(O)c4Cl)CS[C@H]23)c2csc(N)n2)C(=O)O)CC1.O=C(O)C(F)(F)F (some centres not stated)	299	0.06	7.23	8	0.5	4	0.125	58	1	103	1	1	0.25	8	8	0.5	8	8	2	6670	MIC (Pseudomonas aeruginosa [21]): 4 µg/mL
Nc1nc(/C(=N/OC(C(=O)O)C2CCCCC2)C(=O)N[C@@H]2C(=O)N3C(C(=O)O)=C(CSCCNC(=O)c4ccc(O)c(O)c4Cl)CS[C@H]23)c(Cl)s1.O=C(O)C(F)(F)F (some centres not stated)		0.125		4	0.5	0.25	0.25		1		1	1	0.5	2	2	0.5	4	4	2		MIC (Acinetobacter baumannii [22]): 2 µg/mL; MIC (Acinetobacter baumannii [23]): 1 µg/mL; MIC (Pseudomonas aeruginosa [24]): 1 µg/mL
Cc1ccc(S(=O)(=O)O)cc1.Nc1nc(/C(=N/OC(C(=O)O)C2CCC(F)(F)CC2)C(=O)N[C@@H]2C(=O)N3C(C(=O)O)=C(CSCCNC(=O)c4ccc(O)c(O)c4Cl)CS[C@H]23)cs1 (some centres not stated)	45		0.402					31.3		12										11600	
CC(C)(O/N=C(\C(=O)N[C@@H]1C(=O)N2C(C(=O)[O-])=C(C[N+]3(CCNC(=O)c4ccc(O)c(O)c4Cl)CCCC3)CS[C@H]12)c1csc(N)n1)C(=O)O.O=C(O)C(F)(F)F	33		0.663					25.2		26.4										11600	
Nc1nc(/C(=N/OC(C(=O)O)C2CCC(F)(F)CC2)C(=O)N[C@@H]2C(=O)N3C(C(=O)O)=C(CSCCNC(=O)c4ccc(O)c(O)c4Cl)CS[C@H]23)ns1.O=C(O)C(F)(F)F (some centres not stated)		0.25			4	0.5	1		32		16	16	1			1			16		MIC (Acinetobacter baumannii [22]): 0.25 µg/mL; MIC (Pseudomonas aeruginosa [25]): 8 µg/mL; MIC (Acinetobacter baumannii [23]): 0.25 µg/mL; MIC (Pseudomonas aeruginosa [24]): 4 µg/mL
Nc1nc(/C(=N/OC(C(=O)O)C2CCCCC2)C(=O)N[C@@H]2C(=O)N3C(C(=O)O)=C(CSCCNC(=O)c4ccc(O)c(O)c4Cl)CS[C@H]23)c(Br)s1.O=C(O)C(F)(F)F (some centres not stated)		0.06		2	0.5	0.25	1		2		1	2	0.25	1	2	0.5	2	1	8		MIC (Acinetobacter baumannii [22]): 1 µg/mL; MIC (Pseudomonas aeruginosa [25]): 4 µg/mL; MIC (Acinetobacter baumannii [23]): 1 µg/mL; MIC (Pseudomonas aeruginosa [24]): 1 µg/mL
Cl.Nc1nc(/C(=N/OC(C(=O)O)C2CCC(F)(F)CC2)C(=O)N[C@@H]2C(=O)N3C(C(=O)O)=C(CSCCNC(=O)c4ccc(O)c(O)c4Cl)CS[C@H]23)cs1 (some centres not stated)	46.8		0.997					54		18.6										6340	
Nc1nc(/C(=N/OC(C(=O)O)C2CCC(F)(F)CC2)C(=O)N[C@@H]2C(=O)N3C(C(=O)O)=C(CSCCNC(=O)c4ccc(O)c(O)c4Cl)CS[C@H]23)c(Br)s1.O=C(O)C(F)(F)F (some centres not stated)	200	0.06	9.48	1	0.125	0.06	0.125	92.9	1	96.6	0.25	0.5	0.06	0.5	4	0.125	2	4	0.5	3910	MIC (Acinetobacter baumannii [22]): 4 µg/mL; MIC (Pseudomonas aeruginosa [25]): 8 µg/mL; MIC (Acinetobacter baumannii [23]): 0.125 µg/mL; MIC (Pseudomonas aeruginosa [24]): 0.25 µg/mL
